# Source: patent US20240132480A1, “INHIBITORS OF MYCOBACTERIUM TUBERCULOSIS LIPOAMIDE DEHYDROGENASE” (Cornell University, priority 2021, published 2024)
# pIC50: −log10 of the molar value. Read-outs that look alike come from different tables or passages of the source.
# What was measured:
# [1] = microsomes
# Mtb Lpd = Mtb Lpd (Mycobacterium tuberculosis (strain ATCC 25618 / H37Rv), UniProt P9WHH9); assay type: biochemical; conditions: for pIC50: read-out: LPD IC50; for IC50: 30 min preincubation, read-out: LPD IC50 (μM) w/ 30 min preincubation
SMILES,Human Liver Microsome Stability [1] [µL/min/mg],pIC50 (Mtb Lpd),IC50 (Mtb Lpd) [µM]
"Cc1cc(S(=O)(=O)N2CC[C@@H]2C(=O)Nc2ccn(C)c(=O)c2)c2[nH]c(C#N)cc2c1 [Example 188, (R)-1-((2-cyano-5-methyl-1H-indol-7-yl)sulfonyl)-N-(1-methyl-2-oxo-1,2-dihydropyridin-4-yl)azetidine-2-carboxamide]",5,5.05,
CCN(CC(=O)NC1=CC(=O)C(C)C=C1)S(=O)(=O)c1cc(C)cc2cn[nH]c12 (centres unmarked) [Example 45],39,7.57,
Cc1cc(S(=O)(=O)N(C)CC(=O)Nc2ccc3cnccc3c2)c2n[nH]cc2c1 [Example 57],59,7.48,
Cc1cc(S(=O)(=O)N(C)CC(=O)Nc2ccc3nccn3c2)c2n[nH]cc2c1 [Example 48],36,7.38,
Cc1cc(S(=O)(=O)N(C)CC(=O)Nc2ccc3c(c2)N(C)CCO3)c2[nH]ncc2c1 [Example 31],91,7.78,
"Cc1cc(S(=O)(=O)N(C)CC(=O)Nc2ccc(C3CCN(C4COC4)CC3)c(Cl)c2)c2[nH]ncc2c1 [Example 193, N-(3-chloro-4-(1-(oxetan-3-yl)piperidin-4-yl)phenyl)-2-((N,5-dimethyl-1H-indazole)-7-sulfonamido)acetamide]",73,7.28,
CC#CCNC(=O)[C@@H]1CCN1S(=O)(=O)c1cc(C)cc2cn[nH]c12 [Example 200],13,6.42,
Cc1cc(S(=O)(=O)N(C)CC(=O)NCC#Cc2ccccc2)c2[nH]ncc2c1 [Example 203],129,7.37,
"COc1ccc(NC(=O)CN(C)S(=O)(=O)c2cc(C)cc3cc(C#N)[nH]c23)cn1 [Example 216, 2-((2-cyano-N,5-dimethyl-1H-indole)-7-sulfonamido)-N-(6-methoxypyridin-3-yl)acetamide]",49,,0.02
CCN(CC(=O)Nc1ccc(N2CCN(C)CC2)c(Cl)c1)S(=O)(=O)c1cc(C)cc2cn[nH]c12 [Example 160],107,6.97,
"Cc1cc(S(=O)(=O)N(C)CC(=O)Nc2ccn(C)c(=O)c2)c2n[nH]c(Cl)c2c1 [Example 176, 2-((3-chloro-N,5-dimethyl-1H-indazole)-7-sulfonamido)-N-(1-methyl-2-oxo-1,2-dihydropyridin-4-yl)acetamide]",34,6.60,
Cc1cc(S(=O)(=O)N(C)CC(=O)NC2COC2)c2n[nH]cc2c1 [Example 50],8,7.13,
Cc1cc(S(=O)(=O)N(C)CC(=O)Nc2ccc3c(c2)N(C2COC2)CCO3)c2[nH]ncc2c1 [Example 169],39,7.42,
O=C(Nc1ccc2c(c1)OCCN2C1CCOCC1)[C@@H]1CCN1S(=O)(=O)c1cc(Cl)cc2cn[nH]c12 [Example 161],121,7.48,
Cc1cc(NC(=O)CN(C)S(=O)(=O)c2cc(C3CC3)cc3cn[nH]c23)ccc1N1CCOCC1 [Example 34],203,8.17,
Cc1cc(S(=O)(=O)N(C)CC(=O)Nc2ccc3c(c2)OCCN3C2COC2)c2[nH]ncc2c1 [Example 94],45,7.56,

SMILES,Human Liver Microsome Stability [1] [µL/min/mg],pIC50 (Mtb Lpd),IC50 (Mtb Lpd) [µM]
Cc1cc(S(=O)(=O)N(C)CC(=O)Nc2ccc3c(c2)OCCN3CC(C)(C)O)c2[nH]ncc2c1 [Example 146],31,7.59,
CN(C)CCOc1ccc(NC(=O)CN(C)S(=O)(=O)c2cccc3cn[nH]c23)cc1Cl [Example 164],-16,7.07,
Cn1ccc(NC(=O)[C@@H]2CCN2S(=O)(=O)c2cc(Cl)cc3c(F)n[nH]c23)cc1=O [Example 148],-17,7.40,
Cc1cc(S(=O)(=O)N2CCC2C(=O)Nc2ccc(OCCN(C)C)c(C)c2)c2[nH]c(C#N)cc2c1 (centres unmarked) [Example 207],-7,6.65,0.06
Cc1cc(S(=O)(=O)N2CC[C@H]2C(=O)NC2CCN(C)CC2)c2[nH]ncc2c1 [Example 129],418,5.18,
Cc1cc(S(=O)(=O)N(C)CC(=O)Nc2ccn(C(C)C)c(=O)c2)c2[nH]ncc2c1 [Example 16],35,7.29,
Cc1cc(S(=O)(=O)N(C)CC(=O)Nc2ccc(C3CC3)c(Cl)c2)c2[nH]c(C#N)cc2c1 [Example 215],203,,0.036
Cc1cc(S(=O)(=O)N2CC[C@@H](C(=O)Nc3ccc4c(c3)OCCN4C3CCOCC3)C2)c2n[nH]cc2c1 [Example 122],26,7.52,
"O=C(Nc1ccc2c(c1)OCCN2C1COC1)[C@@H]1CCN1S(=O)(=O)c1cc(C(F)F)cc2c(F)n[nH]c12 [Example 184, (S)-1-((5-(difluoromethyl)-3-fluoro-1H-indazol-7-yl)sulfonyl)-N-(4-(oxetan-3-yl)-3,4-dihydro-2H-benzo[b][1,4]oxazin-7-yl)azetidine-2-carboxamide]",36,6.83,
"CN(CC(=O)Nc1ccc2c(c1)OCCN2C1CCOCC1)S(=O)(=O)c1cc(C(F)F)cc2c(F)[nH]nc12 [Example 175, 2-((5-(difluoromethyl)-3-fluoro-N-methyl-1H-indazole)-7-sulfonamido)-N-(4-(tetrahydro-2H-pyran-4-yl)-3,4-dihydro-2H-benzo[b][1,4]oxazin-7-yl)acetamide]",166,7.05,
"CN(CC(=O)Nc1ccn(C)c(=O)c1)S(=O)(=O)c1cc(C(F)F)cc2c(F)n[nH]c12 [Example 183, 2-((5-(difluoromethyl)-3-fluoro-N-methyl-1H-indazole)-7-sulfonamido)-N-(1-methyl-2-oxo-1,2-dihydropyridin-4-yl)acetamide]",-15,6.64,
Cc1cc(S(=O)(=O)N2CCC[C@H]2C(=O)Nc2ccn(C)c(=O)c2)c2[nH]ncc2c1 [Example 7],18,7.29,
"Cc1cc(S(=O)(=O)N2CC[C@H]2C(=O)Nc2ccc(N3CCN(C)CC3)c(Cl)c2)c2[nH]ncc2c1 [Example 153, (S)—N-(3-chloro-4-(4-methylpiperazin-1-yl)phenyl)-1-((5-methyl-1H-indazol-7-yl)sulfonyl)azetidine-2-carboxamide]",113,7.32,
Cc1cc(S(=O)(=O)N2CC[C@H]2C(=O)Nc2ccc3ccncc3c2)c2[nH]ncc2c1 [Example 71],132,7.29,
Cc1cc(S(=O)(=O)N(C)CC(=O)NCC#Cc2ccccc2)c2[nH]c(C#N)cc2c1 [Example 218],191,,0.03
CCc1ccc(NC(=O)CN(C)S(=O)(=O)c2cc(C)cc3cc[nH]c23)cc1C [Example 21],328,6.87,
